Assay results taken from patent US20180050114A1, “HER2 APTAMER-ANTICANCER DRUG COMPLEX FOR CANCER CELL CHEMOTHERAPY” (priority 2016, published 2018).
{SH} = thiol (OH replaced by SH), used for disulfide linkage to DM1

Key:
[1] = system: HER2-negative breast cancer cell lines (MCF7, T47D); assay: Apoptosis rate (sub-G1%) by PI DNA content flow cytometry, HER2-negative cell lines; type: cell-based; conditions: 10 nM, 72 hr (FIG. 5)
Protocol: (§1) Thereafter, the apoptosis rate (sub-G1%) of cancer cells was measured through DNA content analysis using flow cytometry.
(§2) (2) Typically, the cell cycle includes, depending on the amount of DNA in cells, G1 (cell growth phase)-S (cell replication phase)-G2/M (cell mitotic phase). […] The results of apoptosis are represented by the percentage of sub-G1 in the cell cycle.

[2] = system: HER2-positive breast cancer cell lines (SKBR3, BT474, MDA-MB-453); assay: Apoptosis rate (sub-G1%) by PI DNA content flow cytometry, HER2-positive cell lines; type: cell-based; conditions: 10 nM, 72 hr (FIG. 5); for apoptosis rate (sub-G1%): HER2-positive cell lines SKBR3, BT474, MDA-MB-453
Protocol: as §1, §2

HER2 = target: T1, HER2 (Homo sapiens, UniProt P04626); assay: Confocal ICC of HER2 localisation / cellular internalization in BT474 cells; type: cell-based; conditions: BT474 cell line, 10 nM, 48 hr, confocal microscope (FIGS. 2A to 2L)
T1 construct: endogenous in cells; host or cells: BT474 breast cancer cells
Protocol: (2) The cells cultured on 8-well chamber slides were fixed with 4% paraformaldehyde, washed with PBS, and cultured for 10 min with 0.2% Triton X-100. Thereafter, the cells were cultured overnight at 4° C. with primary antibodies in an antibody dilution buffer and then cultured at room temperature for 2 hr with fluorescence-conjugated secondary antibodies. Thereafter, the cells were mounted on ProLong Gold Antifade Reagent containing DAPI (4′,6′-diamidine-2′-phenylindole dihydrochloride). Particularly, each of the cultured breast cancer cell lines was subjected to immunocytochemistry (ICC) using a HER2 antibody, the nucleus thereof was stained with DAPI, and HER2 (red) and nucleus (blue) regions were imaged using a confocal microscope.
(1) ICC was performed using the HER2 antibody.

[3] = system: HER2-positive breast cancer BT474 cell line and HER2-negative breast cancer T47D cell line, co-cultured 1:1; assay: p-His3 (mitotic arrest marker) ICC in co-cultured HER2-positive and HER2-negative cells; type: cell-based; conditions: for expression of p-His3 depending on HER2 expression (confocal images): BT474/T47D co-culture 1:1, 10 nM, 24 hr (FIG. 3)
Protocol: (2) HER2 and a mitotic arrest marker, namely phospho-Histone H3 (p-His3), were stained with ICC, and the HER2-positive breast cancer BT474 cell line and the HER2-negative breast cancer T47D cell line, the nuclei of which were stained with DAPI, were co-cultured at a ratio of 1:1 and treated with a control (DMSO), DM1, and Aptamer-DM1 at a concentration of 10 nM for 24 hr. Thereafter, the nuclei (blue), p-His3 (green), and HER2 (red) were imaged using a confocal microscope. The number of cells in which p-His3 was detected was quantified based on whether HER2 was expressed or not.

JIMT-1 cell line = assay: Western blot of HER family / AKT signalling in JIMT-1 cells; type: cell-based; conditions: JIMT-1, 10 nM, 72 hr, compared to control, DM1 and Aptamer (FIG. 10)
BT474-Tra cells = assay: Drug-resistant disease animal model, BT474-Tra tumors; type: in vivo, BALB/c nude mice; conditions: BT474-Tra transplanted mice, 1 mg/kg intraperitoneally, 15 days (FIG. 11)
Protocol: (§3) Thereafter, the tumor volume was measured for 15 days. The results are shown in FIG. 11, and the results of in-vivo bioluminescence imaging of JIMT-1-transplanted mice are shown in FIG. 12. In-vivo bioluminescence imaging was performed in a manner in which the mice were anesthetized and administered with 150 mg/kg of luciferin, after which the tumor size and the transition state were measured using a bioluminescence imaging system.

[4] = system: HER2-positive BT474 tumors (compared with HER2-negative T47D tumors); assay: Breast cancer animal model, tumor volume and TUNEL assay; type: in vivo, BALB/c nude mice; conditions: 1 mg/kg, 2 mg/kg intraperitoneally three times a week
Protocol: (1) To the fourth breast fat pads of immunodeficient 6-week-old female BALB/c nude mice, HER2-positive BT474 cancer cells (3×10^6 cells) and HER2-negative T47D cancer cells (3×10^6 cells) were transplanted, after which Aptamer-DM1 (1 mg/kg, 2 mg/kg, body weight) was intraperitoneally administered three times a week. Then, the tumor volume was measured for 18 days. The tumor volume (V) was measured using a caliper and calculated according to V=(length×width^2)/2. In the TUNEL assay, the tumors were removed from the mice, fixed with 10% neutral-buffered formalin and embedded in paraffin. The 4 μm thick tissue section was mounted on a positively charged glass slide, deparaffinized with xylene, and […] through a graded alcohol series. After antigen retrieval, the above tissue section was boiled in a citric acid buffer (pH 6.0) and immunofluorescence was performed. In situ TUNEL was performed on the above tissue section using a TUNEL kit (Roche Applied Sciences, Penzberg, GER), and the images thereof were obtained using a confocal scanning microscope.

JIMT-1 cells = assay: Drug-resistant disease animal model, JIMT-1 tumors (tumor volume, bioluminescence imaging); type: in vivo, BALB/c nude mice
Protocol: as §3

[5] = system: Trastuzumab-resistant BT474 cell line (BT474-Tra); assay: Western blot of HER family / AKT signalling in Trastuzumab-resistant BT474 cells; type: cell-based; conditions: 10 nM
Protocol: For the BT474 and BT474-Tra cell lines, the expression of p185HER2, p95HER2, p-HER2, p-p95HER2, HERS, p-HER3, total-AKT, p-AKT, and PARP was analyzed via Western blot. Cell viability was measured using a CellTiter 96* Aqueous One Solution Cell Proliferation Assay [MTS, 3-(4,5-dimethylthiazol-2-yl)-5-(3-carboxymethoxyphenyl)-2-(4-sulfophenyl)-2H-tetrazolium], and the amount of produced formazan was determined by measuring absorbance at 490 nm using a Spectramax Plus 384 microplate analyzer. In the Western blot, the above cells were lysed in a lysis buffer (30 mM NaCl, 0.5% Triton X-100, 50 mM Tris-HCl; pH 7.4) containing phosphatase and a protease inhibitor, and the supernatant was collected and then the protein was […] using a Bradford protein assay kit. 30 μg of the protein was subjected to SDS-PAGE and electrophoresed with a nitrocellulose membrane. The membrane was cultured overnight at 4° C. with primary antibodies diluted in bovine serum albumin (BSA) and then cultured with horseradish peroxidase (HRP)-conjugated rabbit IgG (1:3000-1:10,000). Signal intensity was measured using an Enhanced Chemiluminescence Kit and an X-ray film, and quantified with AlphaEaseFC software.

[6] = BT474/T47D co-culture, 10 nM, 24 hr (FIG. 4)

| Compound | apoptosis rate (sub-G1%) [1] | apoptosis rate (sub-G1%) [2] | HER2 localisation (cell membrane expression vs cellular internalization) (HER2) | expression of p-His3 depending on HER2 expression (confocal images) [3] | proportions of cells in which p-His3 was detected, HER2-positive cell line versus HER2-negative cell line [3, 6] | apoptosis rate compared to the DM1-treated group ([2]; HER2-positive cell lines) | expression of full-length p185HER2, phospho-HER2 (Tyr1221), HER3, phospho-HER3, AKT and phospho-Akt (Ser 43) (JIMT-1 cell line) | proportion of cells in which p-His3 was detected, HER2-negative cell line [3, 6] | proportion of cells in which p-His3 was detected, HER2-positive cell line [3, 6] | tumor volume (BT474-Tra cells) | tumor growth (tumor volume) ([4]; 18 days, BT474 and T47D transplanted tumors (FIG. 6)) | apoptosis in tumors (TUNEL assay) ([4]; BT474 and T47D tumors (FIG. 7)) | luciferin intensity (in-vivo bioluminescence imaging) (JIMT-1 cells; JIMT-1-transplanted mice, 1 mg/kg intraperitoneally (FIG. 12)) | tumor volume (JIMT-1 cells; JIMT-1 transplanted mice, 1 mg/kg intraperitoneally, 15 days (FIG. 11)) | expression of p95HER2 ([5]; BT474-Tra cells, 72 hr (FIG. 10)) | expression of full-length p185HER2, phospho-HER2 (Tyr1221), HER3, phospho-HER3, AKT and phospho-Akt (Ser 43) ([5]; BT474-Tra, 72 hr, compared to control, DM1 and Aptamer (FIG. 10)) |
| --- | --- | --- | --- | --- | --- | --- | --- | --- | --- | --- | --- | --- | --- | --- | --- | --- |
| COc1cc2cc(c1Cl)N(C)C(=O)C[C@H](OC(=O)[C@H](C)N(C)C(C)=O)[C@]1(C)O[C@H]1[C@H](C)[C@@H]1C[C@@](O)(NC(=O)O1)[C@H](OC)/C=C/C=C(\C)C2 [DM1, maytansine, reference compound] | relatively high apoptosis rate | relatively high apoptosis rate | expression of HER2 on the cell membrane was observed | found regardless of whether HER2 was expressed or not | not significantly different |  |  |  |  |  |  |  |  |  |  |  |
| Aptamer-DM1: HER2-binding RNA aptamer (SEQ ID NO:1, 3′ thiol, 2′-O-methyl) linked via disulfide bonding to anticancer drug DM1 (GGGAGGACGAUGCGGGACUGUACGGGGCUCUGUGCAGACGACUCGCCCGA; 3' {SH}, sugars by position and backbone not given here; 2'-O-methyl modified, 3' thiol disulfide-linked to DM1) | low | high | cellular internalization of HER2 from the cell membrane was observed | detected only in the cells in which HER2 was expressed |  | high apoptosis rate in the HER2-positive cell lines compared to the DM1-treated group | significantly reduced | considerably decreased | remarkably increased | significantly reduced the tumor volume | significantly decreased only the growth of HER2-positive BT474 tumors | effectively induced apoptosis only in the HER2-positive BT474 tumors | remarkably decreased | significantly reduced the tumor volume | strongly inhibited | significantly reduced |
